In patent US7531660B2, “1-[[1-[(2-amino-6-methyl-4-pyridinyl)methyl]-4-fluoro-4-piperidinyl]carbonyl]-4-[2-(2-pyridinyl)-3H-imidazo[4,5-B]pyridin-3-YL]piperidine and methods of use thereof” (Schering Corporation, priority 2005, dated 2009):
Where “and” joins values, the source holds several entries; their conditions need not be identical. Equal values may be shown once. Read-outs that look alike come from different tables or passages of the source.

Tests used:
[1] = molecular target: T1, recombinant human histamine H3 receptor (Homo sapiens, UniProt Q9Y5N1); experiment: Human H3-receptor binding assay ([3H]N-alpha-methylhistamine, HEK-293 membranes)
T1 construct: expressed in transfected cells
Method: Binding assays were performed with membranes from HEK-293 cells stably expressing recombinant human histamine H3 receptor. Each 200 μL assay volume contained 1.0 nM [^3H]N^−α-methylhistamine, test compound, and 3 μg of membrane protein in 50 mM Tris-HCl, pH 7.4. Total binding was determined in the absence of compound and nonspecific binding in the presence of 10^−5 M thioperamide. Material was incubated 30 minutes at 30° C. then filtered on GF/B filters. These were rinsed three times with cold buffer, then dried, impregnated with Meltilex scintillation counting medium, and counted. Ki values were determined from standard curve-fitting procedures. […] Values are averages from two assays with duplicate determinations in each. Errors are expressed as the range of these values from the mean.

[2] = Oral tolerance in dogs with plasma level analysis; format: in vivo, beagle dogs; conditions: for Plasma level at Day 0: prior to the study; for concentration at 24 h / concentration at 7 day: beagle, dog, plasma, po; for concentration at 24 h / concentration at 7 day / Plasma level at Day 1 / Plasma level at Day 7: 5 mg/kg, 5 mg/kg oral daily; for concentration at 24 h / Plasma level at Day 1: 24 hours after first dose; for concentration at 24 h: read-out: Plasma level at Day 1; for concentration at 7 day / Plasma level at Day 7: end of study
Method: Male and female beagle dogs (N=6, age≧4 months, each having a body weight of from 10-15 kg) were used in this study. The treated animals (N=4) were orally administered the Compound of formula I once a day for 7 days at a daily dosage of 5 mg/kg (5 times proposed efficacy dose). The control animals (N=2) were orally administered vehicle only. Animals were fasted for 8 hours prior to each administration of the Compound of formula I or vehicle and were fasted for 2 hours after each administration of the Compound of formula I or vehicle. Blood samples were collected before, during, and after the treatment period for pharmacokinetic analysis.
Approximately 4.0±1 mL of blood was drawn from each animal at prior to the study (day 0), at 24 hours after the first dose (day 1), and at the end of the study (day 7), using jugular venipuncture and immediately placed into separated Vacutainer® tubes containing EDTA anticoagulant, and processed for plasma. The plasma was aspirated and divided into two aliquots (≧0.3 ml each) and each aliquot was frozen at −70° C. or less.
Collected blood plasma samples were analyzed for the concentration of the Compound of formula I using the following analytical method: […]
D: Sample Preparation Procedure: • 1) Pipette 40 μL of sample into a 1 mL 96-well plate. • 2) Add 150 μL of internal standard solution to each well. • 3) Gently vortex plate for 1 minute. • 4) Centrifuge samples for 10 minutes (Eppendorf 5810 Centifuge). • 5) Pipette 100 μL of supernatant into a 350 μL 96-well plate. Results

Feline H3 Receptors = Feline H3 Receptors (Felis catus, UniProt A0ABI7WGM6); experiment: Binding to feline H3 receptors, brain P2 membranes; conditions: Cat brain membranes, N=3, mean ± SEM
Method: (§1) Binding assays were performed with membranes from a P2 pellet preparation of brain from each species as described in West et al., Mol Pharmacol 38:610-613 (1990). Frozen brains were thawed at room temperature and then disrupted in ten volumes (w:v) of ice-cold 50 mM Tris-HCl, pH 7.4, with a Polytron. Homogenates were centrifuged at 1000×g and supernatants then centrifuged at 50,000×g. Pellets from the second centrifugation were resuspended in buffer, sedimented again at 50,000×g, and stored frozen at −80° C.
(§2) Each 200 μL assay volume contained 1.0 nM [^3H]N^−α-methylhlstamine, test compound, and 300 μg of membrane protein in 50 mM Tris-HCl, pH 7.4. Total binding was determined in the absence of compound and nonspecific binding in the presence of 10^−5 M thioperamide. Assay mixtures are incubated 30 minutes at 30° C. then filtered on CF/B filters. Filters were rinsed three times with cold buffer, dried, impregnated with Meltilex scintillation counting medium, and counted. IC50 values were determined using standard curve-fitting procedures and Ki values were calculated from these using the method set forth in Cheng et al., Biochem Pharmacol 22:3099-3108 (1973). Each competition binding assay comprised ten concentrations of compound, each concentration assayed in duplicate. Binding data obtained for the Compound of Formula I to canine and feline H3 receptors are set forth below in Table 1. […]

[3] = Canine pharmacokinetics after oral and i.v. administration; format: in vivo, beagle dogs; conditions: fasted dogs; for MRT: read-out: Mean Residence Time (MRT)
Method: The Compound of Formula I was administered at a dose of 3 mg/kg to fasted beagle dogs orally (PO) at […] (0.4% MC formulation) and i.v. at […] (captisol, pH 5.1 fornulation). Blood samples were taken at multiple time intervals for 48 hours post dosing. The blood samples were converted to plasma and stored at −20° C. until being assayed for the Compound of Formula I using an HPLC-API-MS/MS procedure. The pharmacokinctic parameters that were calculated from thiis study are sumarized in Table 2 below.

[4] = tested on: mice made obese with a high fat diet; experiment: Diet-induced obesity in mice (weight gain); format: in vivo; conditions: DIO mice, oral once a day, 0.3 mg/kg in 20% aqueous HPBCD
Method: Diet-induced obesity (DIO) was determined according to the following procedure. Young mice were maintained in individual cages at 22° C. on a 12:12 hr light/dark cycle. Mice were made obese with a high fat diet. Mice were orally gavaged daily with vehicle or compound; body weight and food intake were monitored daily.

Canine H3 Receptors = Canine H3 Receptors (Canis lupus familiaris, UniProt A0A8I3P226); experiment: Binding to canine H3 receptors, brain P2 membranes; conditions: Dog brain membranes, N=2, mean ± SEM
Method: as §1, §2

[5] = tested on: mice having diet-induced obesity; experiment: Liver triglycerides in obese mice; format: in vivo; conditions: DIO mice, 10 mg/kg/day gavage for 12 days
Method: The Compound of Formula I was administered daily for 12 days via gavage to mice having diet-induced obesity at a dosage of 10 mg/kg/day (vehicle 0.4% aqueous methylcellulose (MC); see procedure for diet-induced obesity described above).
On day 12, the animals were sacrificed, their livers were collected, and liver pieces were extracted according to the procedure of Folch et al., J. Biol. Chem. 226:497-509 (1957). The collected liver tissue was then homogenized in 6 mL of chloroform:methanol (2:1), 4 mL water was added to the homogenized mixture and the resulting solution was vortexed, then centrifuged at 1000×g for 30 minutes. The chloroform layer was removed and dried under nitrogen to provide the extracted lipids, which were redissolved in 1 mL chloroform and aliquots were transferred into HPLC sample vials. […]
Chromatography was performed using an isocratic mobile phase containing 98.8% hexane and 1.2% isopropanol at a flow rate of 2 mL/min through a Zorbax Sil (4.6×25 cm) silica column (Agilent Technologies #880952-701). Lipids in a 5 μL injection were detected by absorbance at 206 nm and quantitated by computer integration (System Gold, Beckman) of elution profiles. Cholesterol, cholesteryl ester, and triglyceride concentrations were determined by comparison to standard curves using Non-polar Lipid Mix-B, Matreya, Inc., Pleasant Gap, Pa. cat. #1130.

[6] = both sexes, Mean of 4 treated dogs
[7] = dogs, daily oral 5 mg/kg for 7 days
[8] = male, male dog, individual animal
[9] = beagle, dog, plasma, IV 3 mg/kg
[10] = beagle, dog, plasma, oral 3 mg/kg
[11] = beagle, dog, plasma, oral 3 mg/kg, 0.4% MC

Canine H3 Receptors, sequence (A0A8I3P226 1-445): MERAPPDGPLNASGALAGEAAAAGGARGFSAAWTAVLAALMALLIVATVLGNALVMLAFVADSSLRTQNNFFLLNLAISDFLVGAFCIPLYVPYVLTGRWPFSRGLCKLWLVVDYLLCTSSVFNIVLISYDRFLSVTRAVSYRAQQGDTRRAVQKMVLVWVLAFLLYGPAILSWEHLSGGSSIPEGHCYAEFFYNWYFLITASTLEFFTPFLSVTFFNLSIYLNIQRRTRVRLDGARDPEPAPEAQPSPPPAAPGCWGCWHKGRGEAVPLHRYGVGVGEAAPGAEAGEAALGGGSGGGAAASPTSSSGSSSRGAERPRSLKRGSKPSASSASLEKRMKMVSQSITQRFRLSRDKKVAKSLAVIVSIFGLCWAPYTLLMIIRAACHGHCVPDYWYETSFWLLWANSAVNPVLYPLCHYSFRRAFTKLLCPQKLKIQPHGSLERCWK
T1 sequence (Q9Y5N1 whole entry): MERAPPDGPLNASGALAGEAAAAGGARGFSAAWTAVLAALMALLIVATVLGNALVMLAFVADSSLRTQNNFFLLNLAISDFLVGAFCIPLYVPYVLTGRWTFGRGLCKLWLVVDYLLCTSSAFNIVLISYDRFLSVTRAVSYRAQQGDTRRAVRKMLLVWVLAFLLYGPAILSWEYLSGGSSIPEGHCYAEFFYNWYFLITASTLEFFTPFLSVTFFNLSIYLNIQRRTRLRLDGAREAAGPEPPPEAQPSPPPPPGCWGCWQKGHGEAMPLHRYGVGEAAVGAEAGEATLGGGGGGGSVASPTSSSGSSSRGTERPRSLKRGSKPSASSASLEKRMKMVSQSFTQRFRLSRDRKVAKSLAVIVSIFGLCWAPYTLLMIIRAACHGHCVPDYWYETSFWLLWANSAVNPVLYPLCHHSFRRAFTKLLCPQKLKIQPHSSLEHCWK
Feline H3 Receptors, sequence (A0ABI7WGM6 entry or part of it): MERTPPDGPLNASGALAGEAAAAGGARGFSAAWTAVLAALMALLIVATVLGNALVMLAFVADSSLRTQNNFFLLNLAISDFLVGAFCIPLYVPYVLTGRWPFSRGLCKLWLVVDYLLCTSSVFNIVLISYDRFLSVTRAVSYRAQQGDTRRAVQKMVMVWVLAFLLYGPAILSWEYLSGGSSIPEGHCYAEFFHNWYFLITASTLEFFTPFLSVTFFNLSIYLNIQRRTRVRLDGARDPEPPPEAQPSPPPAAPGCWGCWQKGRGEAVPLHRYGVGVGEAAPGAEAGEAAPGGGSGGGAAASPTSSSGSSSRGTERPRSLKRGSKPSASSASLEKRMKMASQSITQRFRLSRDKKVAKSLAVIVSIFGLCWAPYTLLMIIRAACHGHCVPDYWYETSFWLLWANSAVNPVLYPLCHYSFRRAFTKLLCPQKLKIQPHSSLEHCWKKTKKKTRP

With Cc1cc(CN2CCC(F)(C(=O)N3CCC(n4c(-c5ccccn5)nc5cccnc54)CC3)CC2)cc(N)n1 [Compound of Formula I, 1-[[1-[(2-amino-6-methyl-4-pyridinyl)methyl]-4-fluoro-4-piperidinyl]carbonyl]-4-[2-(2-pyridinyl)-3H-imidazo[4,5-b]pyridin-3-yl]piperidine] the Ki [1] was 4.6 nM, the “Plasma level at Day 0” value ([2]; Mean of 4 treated dogs) was 1.70 ng/mL and the concentration at 24 h [2, 6] was 257 ng/mL. For the same compound, the concentration at 7 day [2, 6] was 422 ng/mL, the accumulation in plasma ([2]; dogs, 7 days daily oral 5 mg/kg) was “accumulated 7 days after daily oral administration” and the adverse events [2, 7] was “No adverse events were observed”. The tolerability [2, 7] was “well tolerated”, the “Plasma level at Day 1” value ([2]; female dog, individual animal) was 148 ng/mL and 604 ng/mL and the “Plasma level at Day 7” value ([2]; female dog, individual animal) was 680 ng/mL. The “Plasma level at Day 0” value ([2]; female dog, individual animal) was 0 ng/mL, the concentration at 7 day ([2]; female, female dog, individual animal) was 540 ng/mL and the “Plasma level at Day 1” value ([2]; male dog, individual animal) was 157 ng/mL. For the same compound, the “Plasma level at Day 7” value ([2]; male dog, individual animal) was 207 ng/mL, the “Plasma level at Day 0” value ([2]; male dog, individual animal) was 0 ng/mL and 6.8 ng/mL and the concentration at 24 h [2, 8] was 118 ng/mL. The concentration at 7 day [2, 8] was 263 ng/mL, the Ki (Feline H3 Receptors) was 4.9 ± 0.6 nM and the clearance [3, 9] was 1.7 mL/min/kg. It also gave a half-life [3, 9] of 9.5 h, an AUC(0-inf) ([3]; beagle, dog, plasma, IV 3 mg/kg, captisol pH 5.1) of 32800 ng·h/mL and an MRT [3, 9] of 10.9 h. For the same compound, the Vd ([3]; beagle, dog, plasma, IV 3 mg/kg, read-out: Vd (ss)) was 1.1 L/kg, the Cmax [3, 10] was 910 ng/mL and the AUC(0-inf) [3, 11] was 18900 ng·h/mL. The bioavailability [3, 11] was 58%, the MRT [3, 10] was 18.6 h and the “Mean Absorption Time (MAT) (MRTpo − MRTiv)” value ([3]; oral 3 mg/kg) was 7.8 h. The “inhibition of weight gain” value [4] was “statistically significant inhibition of weight gain”, the Ki (Canine H3 Receptors) was 1.3 ± 0.2 nM and the “reduction in liver triglyceride content relative to control” value ([5]; 0.4% MC) was 52%. For the same compound, the liver triglyceride content ([5]; compound treated group, average) was 861±87 mg/liver.
